Results on 13 compounds are retold here after US11203591B2, “Substituted 6-azabenzimidazole compounds” (Gilead Sciences, Inc., priority 2018, dated 2021).

The target of the assay is human HPK1 (MAP4K1) (Homo sapiens (Human), UniProt Q92918). The assay can be described thus: HPK1 IC50 Assay (TR-FRET peptide phosphorylation). Type of assay: biochemical. As to conditions: 0.15 nM HPK1, 10 μM ATP, 1 μM STK S1 peptide substrate; geometric mean. The essentials: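 Pre-activated, dually phosphorylated baculovirus-expressed HPK1 kinase domain (0.15 nM) preincubated 15 min with compound, then reacted 3 h at 25° C with 10 μM ATP and 1 μM STK S1 peptide in BES pH 7.0 buffer. Phosphopeptide read by TR-FRET (665/620 nm); four-parameter fit, geometric-mean IC50.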
Chain of human HPK1 (MAP4K1) (Q92918 17-274): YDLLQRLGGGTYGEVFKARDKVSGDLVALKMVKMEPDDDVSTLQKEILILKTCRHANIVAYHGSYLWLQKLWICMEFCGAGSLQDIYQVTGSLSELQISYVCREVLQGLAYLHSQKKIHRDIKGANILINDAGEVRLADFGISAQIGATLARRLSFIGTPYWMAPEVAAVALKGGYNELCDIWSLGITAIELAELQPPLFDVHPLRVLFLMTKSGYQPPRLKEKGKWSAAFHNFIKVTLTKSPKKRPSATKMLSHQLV
Compound `CCNC(=O)c1cc(Nc2nc(-c3cnc4c(c3)N([C@H]3C[C@@](C)(N5CCCCC5)C3)C(=O)C4(C)C)cc3ncn(C(C)C)c23)c(F)c(F)c1Cl` [Example 286, 2-chloro-5-((6-(3,3-dimethyl-1-((1s,3s)-3-methyl-3-(piperidin-1-yl)cyclobutyl)-2-oxo-2,3-dihydro-1H-pyrrolo[3,2-b]pyridin-6-yl)-3-isopropyl-3H-imidazo[4,5-c]pyridin-4-yl)amino)-N-ethyl-3,4-difluorobenzamide] yielded an IC50 of 0.1 nM.
The compound `CC(C)n1cnc2cc(-c3ccc4c(c3)N([C@H]3C[C@@](C)(N5CCCCC5)C3)C(=O)C4(C)C)nc(Nc3cc(C(=O)NCC(F)F)c(Cl)c(F)c3F)c21` [Example 287, 2-chloro-N-(2,2-difluoroethyl)-5-((6-(3,3-dimethyl-1-((1s,3s)-3-methyl-3-(piperidin-1-yl)cyclobutyl)-2-oxoindolin-6-yl)-3-isopropyl-3H-imidazo[4,5-c]pyridin-4-yl)amino)-3,4-difluorobenzamide] displayed a concentration for half-maximal inhibition (IC50) of 0.08 nM.
As for `CCNC(=O)c1cc(Nc2nc(-c3ccc4c(c3)N([C@H]3C[C@@](C)(N5CCCCC5)C3)C(=O)C4(C)C)cc3ncn(C(C)C)c23)c(F)c(F)c1Cl` [Example 288, 2-chloro-5-((6-(3,3-dimethyl-1-((1s,3s)-3-methyl-3-(piperidin-1-yl)cyclobutyl)-2-oxoindolin-6-yl)-3-isopropyl-3H-imidazo[4,5-c]pyridin-4-yl)amino)-N-ethyl-3,4-difluorobenzamide], the figure is 0.08 nM; as for `CC(C)n1cnc2cc(-c3ccc4c(c3)N([C@H]3C[C@@](C)(N5CCCCC5)C3)C(=O)C4(C)C)nc(Nc3cc(C(=O)NCC(F)F)c(Cl)cc3F)c21` [Example 289, 2-chloro-N-(2,2-difluoroethyl)-5-((6-(3,3-dimethyl-1-((1s,3s)-3-methyl-3-(piperidin-1-yl)cyclobutyl)-2-oxoindolin-6-yl)-3-isopropyl-3H-imidazo[4,5-c]pyridin-4-yl)amino)-4-fluorobenzamide], 0.07 nM.
As for `CCNC(=O)c1cc(Nc2nc(-c3ccc4c(c3)N([C@H]3C[C@@](C)(N5CCCCC5)C3)C(=O)C4(C)C)cc3ncn(C(C)C)c23)c(F)cc1Cl` [Example 290, 2-chloro-5-((6-(3,3-dimethyl-1-((1s,3s)-3-methyl-3-(piperidin-1-yl)cyclobutyl)-2-oxoindolin-6-yl)-3-isopropyl-3H-imidazo[4,5-c]pyridin-4-yl)amino)-N-ethyl-4-fluorobenzamide], the figure is 0.07 nM; as for `CC(C)n1cnc2cc(-c3cc4c(nc3F)C(C)(C)C(=O)N4[C@H]3C[C@@](C)(N4CCCCC4)C3)nc(Nc3cc(C(=O)NC4(C(F)F)CC4)c(Cl)c(F)c3F)c21` [Example 291, 2-chloro-N-(1-(difluoromethyl)cyclopropyl)-3,4-difluoro-5-((6-(5-fluoro-3,3-dimethyl-1-((1s,3s)-3-methyl-3-(piperidin-1-yl)cyclobutyl)-2-oxo-2,3-dihydro-1H-pyrrolo[3,2-b]pyridin-6-yl)-3-isopropyl-3H-imidazo[4,5-c]pyridin-4-yl)amino)benzamide], 0.08 nM; as for `CC(C)n1cnc2cc(-c3ccc4c(c3)N([C@H]3C[C@@](C)(N5CCCCC5)C3)C(=O)C4(C)C)nc(Nc3cc(C(=O)NC4(CF)CC4)c(Cl)c(F)c3F)c21` [Example 292, 2-chloro-5-((6-(3,3-dimethyl-1-((1s,3s)-3-methyl-3-(piperidin-1-yl)cyclobutyl)-2-oxoindolin-6-yl)-3-isopropyl-3H-imidazo[4,5-c]pyridin-4-yl)amino)-3,4-difluoro-N-(1-(fluoromethyl)cyclopropyl)benzamide], 0.07 nM.
As for `CC(C)n1cnc2cc(-c3ccc4c(c3)N([C@H]3C[C@@](C)(N5CCCCC5)C3)C(=O)C4(C)C)nc(Nc3cc(C(=O)NC4(CF)CC4)c(Cl)cc3F)c21` [Example 293, 2-chloro-5-((6-(3,3-dimethyl-1-((1s,3s)-3-methyl-3-(piperidin-1-yl)cyclobutyl)-2-oxoindolin-6-yl)-3-isopropyl-3H-imidazo[4,5-c]pyridin-4-yl)amino)-4-fluoro-N-(1-(fluoromethyl)cyclopropyl)benzamide], the figure is 0.05 nM.
`CC(C)n1cnc2cc(-c3ccc4c(c3)N([C@H]3C[C@@](C)(N5CCCCC5)C3)C(=O)C4(C)C)nc(Nc3cc(C(=O)NC4(C(F)F)CC4)c(Cl)cc3F)c21` [Example 294, 2-chloro-N-(1-(difluoromethyl)cyclopropyl)-5-((6-(3,3-dimethyl-1-((1s,3s)-3-methyl-3-(piperidin-1-yl)cyclobutyl)-2-oxoindolin-6-yl)-3-isopropyl-3H-imidazo[4,5-c]pyridin-4-yl)amino)-4-fluorobenzamide] showed an IC50 of 0.08 nM.
The same measure for `Cc1cc(F)c(Nc2nc(-c3ccc4c(c3)N([C@]3(C)C[C@H](N5CCCCC5)C3)C(=O)C4(C)C)cc3ncn(C(C)C)c23)cc1C(=O)NC1(C(F)F)CC1` [Example 295, N-(1-(difluoromethyl)cyclopropyl)-5-((6-(3,3-dimethyl-1-((1s,3s)-1-methyl-3-(piperidin-1-yl)cyclobutyl)-2-oxoindolin-6-yl)-3-isopropyl-3H-imidazo[4,5-c]pyridin-4-yl)amino)-4-fluoro-2-methylbenzamide]: 0.1 nM.
The compound `CC(C)n1cnc2cc(-c3ccc4c(c3)N([C@]3(C)C[C@H](N5CCCCC5)C3)C(=O)C4(C)C)nc(Nc3cc(C(=O)NC4(C(F)F)CC4)c(Cl)c(F)c3F)c21` [Example 296, 2-Chloro-N-(1-(difluoromethyl)cyclopropyl)-5-((6-(3,3-dimethyl-1-((1s,3s)-1-methyl-3-(piperidin-1-yl)cyclobutyl)-2-oxoindolin-6-yl)-3-isopropyl-3H-imidazo[4,5-c]pyridin-4-yl)amino)-3,4-difluorobenzamide] had a 50% inhibitory concentration (IC50) of 0.1 nM.
The same measure for `CC(C)n1cnc2cc(-c3cnc4c(c3)N([C@]3(C)C[C@H](N5CCCCC5)C3)C(=O)C4(C)C)nc(Nc3cc(C(=O)NC4(C(F)F)CC4)c(Cl)c(F)c3F)c21` [Example 297, 2-Chloro-N-(1-(difluoromethyl)cyclopropyl)-5-((6-(3,3-dimethyl-1-((1s,3s)-1-methyl-3-(piperidin-1-yl)cyclobutyl)-2-oxo-2,3-dihydro-1H-pyrrol[3,2-b]pyridin-6-yl)-3-isopropyl-3H-imidazo[4,5-c]pyridin-4-yl)amino)-3,4-difluorobenzamide]: 0.2 nM; for “N-(1-(difluoromethyl)cyclopropyl)-5-((6-(3,3-dimethyl-1-((1s,3s)-3-methyl-3-(piperidin-1-yl)cyclobutyl)-2-oxo-2,3-dihydro-1H-pyrrolo[3,2-b]pyridin-6-yl)-3-isopropyl-3H-imidazo[4,5-c]pyridin-4-yl)amino)-2,3,4-trifluorobenzamide [Example 280]”: 0.05 nM.
